# Reference: patent US8168651B2, “Protein kinase modulators” (Cylene Pharmaceuticals, Inc., priority 2008, dated 2012)
# Read-outs that look alike come from different tables or passages of the source.
# Legend:
# [1] = biological target: recombinant human PIM1 (Homo sapiens (Human), UniProt P11309); assay: PIM-1 kinase activity in cell-free in vitro assay; assay type: biochemical; settings: for inhibition at 0.5 µM: 500 nM compound, read-out: PIM-1: % inh 500 nM
# [2] = biological target: recombinant human CK2 (Homo sapiens (Human), UniProt P68400); assay: CK2 assay (cell-free, 33P-ATP filter plate); assay type: biochemical; settings: 500 nM compound, read-out: CK2: % inh 500 nM
# [3] = system: HCT-116 human colorectal carcinoma cells; assay: Cell-proliferation assay using Alamar Blue dye; assay type: cell-based; settings: Homo sapiens;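 also: cells exposed to compound for about 4 days, then Alamar Blue added and dye fluorescence read after about 4 h, compared with medium-only control wells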
# [4] = system: K-562; assay: Cell proliferation modulatory activity, K-562; assay type: cell-based; settings: Homo sapiens, K562; K-562 cells
# [5] = HCT-116, HCT-116, second column, read-out: HCT-116 (uM), cell proliferation modulatory activity
# [6] = HCT-116, second HCT-116 column (c8), read-out: HCT-116 (uM) cell proliferation modulatory activity
# recombinant human PIM1, sequence (P11309 whole entry): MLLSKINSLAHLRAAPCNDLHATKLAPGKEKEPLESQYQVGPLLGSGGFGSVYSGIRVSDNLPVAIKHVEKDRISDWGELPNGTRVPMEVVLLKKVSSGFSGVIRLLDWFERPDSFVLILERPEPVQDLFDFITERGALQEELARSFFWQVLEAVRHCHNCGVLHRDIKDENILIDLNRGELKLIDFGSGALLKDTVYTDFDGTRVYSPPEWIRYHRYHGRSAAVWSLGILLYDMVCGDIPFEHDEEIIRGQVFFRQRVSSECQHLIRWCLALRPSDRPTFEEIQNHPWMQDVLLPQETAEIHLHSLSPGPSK
# recombinant human CK2, sequence (P68400 whole entry): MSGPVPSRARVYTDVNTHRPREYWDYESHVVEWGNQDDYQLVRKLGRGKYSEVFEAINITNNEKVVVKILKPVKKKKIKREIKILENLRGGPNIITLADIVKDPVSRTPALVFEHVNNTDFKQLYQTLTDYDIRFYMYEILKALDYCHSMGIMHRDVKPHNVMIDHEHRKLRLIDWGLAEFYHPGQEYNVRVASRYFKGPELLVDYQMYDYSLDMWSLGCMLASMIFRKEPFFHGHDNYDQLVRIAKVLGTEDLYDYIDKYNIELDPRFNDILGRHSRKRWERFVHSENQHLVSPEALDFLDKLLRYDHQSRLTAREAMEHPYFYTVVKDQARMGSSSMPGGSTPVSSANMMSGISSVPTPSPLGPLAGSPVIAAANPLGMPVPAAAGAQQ
# recombinant human CK2, sequence (P67870 whole entry partner): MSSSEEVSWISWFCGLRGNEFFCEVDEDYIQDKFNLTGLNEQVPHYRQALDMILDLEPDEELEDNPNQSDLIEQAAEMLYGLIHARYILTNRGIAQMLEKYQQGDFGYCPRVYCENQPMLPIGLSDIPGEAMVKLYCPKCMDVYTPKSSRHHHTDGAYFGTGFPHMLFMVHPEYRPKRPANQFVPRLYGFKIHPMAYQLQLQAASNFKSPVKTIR
SMILES,inhibition at 0.5 µM ([1]; cell-free) [%],inhibition at 0.5 µM ([2]; cell-free) [%],"IC50 [3, 5] [µM]",inhibition at 0.5 µM ([1]; cell-free assay) [%],inhibition at 0.5 µM ([2]; cell-free assay) [%],"IC50 [3, 6] [µM]",other results
COC(=O)c1ccc2c(c1)nc(Nc1ccc(F)c(Cl)c1)c1ncncc12,-17.9,6.26,,,,,
Cc1noc(-c2ccc3c(c2)nc(Nc2ccccc2)c2ccncc23)n1,32.7,27.2,,,,,IC50 ([1]; cell-free): > 1.1 µM
CC(C)(C)OC(=O)CCNC(=O)c1cccc(Nc2nc3cc(-c4nnn[nH]4)ccc3c3sccc23)c1,-11.7,40.5,> 10,,,,
O=C(O)c1ccc2c(c1)nc(Nc1cccc(C(=O)Nc3ccccc3)c1)c1ccsc12,-20.9,37.7,> 10,,,,
O=C(O)c1ccc2c(c1)nc(Nc1cccc(C(=O)Nc3nccs3)c1)c1ccsc12,5.99,52.9,> 10,,,,
CC(C)(C)OC(=O)CCNC(=O)c1cccc(Nc2nc3cc(C(=O)O)ccc3c3sccc23)c1,22.4,65.5,> 10,,,,
O=C(O)c1ccc2c(c1)nc(Nc1cccc(C(=O)NCc3cccnc3)c1)c1ccsc12,25.8,62.2,> 10,,,,
CN(C)C(=O)c1cccc(Nc2nc3cc(C(=O)O)ccc3c3sccc23)c1,-12.2,21.3,> 10,,,,
Cc1cc(CNC(=O)c2cccc(Nc3nc4cc(C(=O)O)ccc4c4sccc34)c2)no1,10.6,62.7,> 10,,,,
COCCNC(=O)c1cccc(Nc2nc3cc(C(=O)O)ccc3c3sccc23)c1,12,65.2,> 10,,,,
CC(=O)N1CCN(C(=O)c2cccc(Nc3nc4cc(C(=O)O)ccc4c4sccc34)c2)CC1,20.8,36.5,> 10,,,,
O=C(Cc1cccc(Nc2nc3cc(C(=O)O)ccc3c3sccc23)c1)NC1CC1,19.1,51.2,> 10,,,,
COC(=O)c1ccc2c(c1)nc(Nc1cccc(CC(=O)O)c1)c1ccsc12,8.94,-6.27,> 10,,,,
CN(C)C(=O)Cc1cccc(Nc2nc3cc(C(=O)O)ccc3c3sccc23)c1,42.5,55.4,> 10,,,,
O=C(O)c1ccc2c(c1)nc(Nc1cccc(-c3ccccc3)c1)c1ccsc12,4.58,65.8,> 10,,,,
COC(=O)c1ccc2c(c1)nc(Nc1ccccc1)c1nc(SC)ncc12,-26.7,6.43,9.56,,,,
COC(=O)c1ccc2c(c1)nc(Nc1ccccc1)c1nc(S(C)(=O)=O)ncc12,-27.8,-44.2,0.967,,,,
CNc1ncc2c(n1)c(Nc1ccccc1)nc1cc(C(=O)OC)ccc12,,,,-9.76,-12.1,,
CSc1ncc2c(n1)c(Nc1ccccc1C)nc1cc(C(=O)O)ccc12,,,,9.67,,> 10,IC50 [4]: > 10 µM
COC(=O)c1ccc2c(c1)nc(N(C)c1ccccc1)c1nc(S(C)(=O)=O)ncc12,,,,9.84,,4.36,IC50 [4]: 0.334 µM
CN(c1ccccc1)c1nc2cc(C(=O)O)ccc2c2cnc(NC3CC3)nc12,,,,31.4,,> 10,IC50 [4]: > 10 µM
CNC(=O)c1ccc2c(c1)nc(N(C)c1ccccc1)c1nc(NC3CC3)ncc12,,,,12.6,,9.74,IC50 [4]: > 10 µM
CN(c1ccccc1)c1nc2cc(C(=O)NC3CC3)ccc2c2cnc(NC3CC3)nc12,,,,16.1,,> 10,IC50 [4]: > 10 µM
CN(C)C(=O)c1ccc2c(c1)nc(N(C)c1ccccc1)c1nc(NC3CC3)ncc12,,,,-0.201,,5.19,IC50 [4]: > 10 µM
CNC(=O)c1ccc2c(c1)nc(Nc1ccccc1C)c1nc(NC3CC3)ncc12,,,,4.21,,1.61,IC50 [4]: > 10 µM

SMILES,inhibition at 0.5 µM ([1]; cell-free) [%],inhibition at 0.5 µM ([2]; cell-free) [%],"IC50 [3, 5] [µM]",inhibition at 0.5 µM ([1]; cell-free assay) [%],inhibition at 0.5 µM ([2]; cell-free assay) [%],"IC50 [3, 6] [µM]",other results
Cc1ccccc1Nc1nc2cc(C(=O)N(C)C)ccc2c2cnc(NC3CC3)nc12,,,,0.71,,> 10,IC50 [4]: > 10 µM
Cc1ccccc1Nc1nc2cc(C(=O)NC3CC3)ccc2c2cnc(NC3CC3)nc12,,,,5.72,,> 10,IC50 [4]: > 10 µM
O=C(O)c1ccc2c(c1)nc(Nc1ccccc1)c1ncccc12,,,,,,> 10,IC50 [4]: > 10 µM
O=C(O)c1ccc2c(c1)nc(Nc1ccccc1Oc1ccccc1)c1ccncc12,,,,25,96.5,> 10,
O=C(O)c1ccc2c(c1)nc(Nc1ccccc1)c1nccnc12,,,,-7.65,41.5,> 10,
O=C(O)c1ccc2c(c1)nc(NCCc1ccccc1)c1nccnc12,,,,-26,5.49,> 10,
O=C(O)c1ccc2c(c1)nc(Nc1cccc(F)c1)c1nccnc12,,,,21.9,88.7,> 10,
CN(c1ccccc1)c1nc2cc(C(=O)O)ccc2c2nccnc12,,,,1.15,19.3,> 10,
CC(=O)c1ccc(Oc2nc3cc(C#N)ccc3c3sccc23)cc1,,,,1.38,-17.9,,
N#Cc1ccc2c(c1)nc(Oc1cccc(Cl)c1)c1ccsc12,,,,10.6,-10.8,,
Cc1cc2c(cc1OCc1ccccc1)[nH]c(=O)c1ccncc12,,,,-10.1,-7.77,,
O=c1[nH]c2cnccc2c2cnccc12,,,,19.8,7.5,,
NCc1ccc2c(c1)nc(Nc1cccc(F)c1)c1ccsc12,,,,-16.4,-8.77,,
Fc1cccc(Nc2nc3cc(CN(Cc4ccccc4)Cc4ccccc4)ccc3c3sccc23)c1,,,,2.98,-2.29,,
Cc1cc(NC(=O)NCc2ccc3c(c2)nc(Nc2cccc(F)c2)c2ccsc23)c(C(F)(F)F)o1,,,,-17.5,-9.99,,
Cc1noc(C)c1NC(=O)NCc1ccc2c(c1)nc(Nc1cccc(F)c1)c1ccsc12,,,,-11.2,-4.71,,
Cc1nn(C)c(C)c1NC(=O)NCc1ccc2c(c1)nc(Nc1cccc(F)c1)c1ccsc12,,,,11,-5.43,,
O=c1[nH]c2cc(F)ccc2c2cnccc12,,,,15.3,-1.1,,
O=c1[nH]c2ccc(OC(F)(F)F)cc2c2cnccc12,,,,9.09,1.22,,
COC(=O)c1cccc2c1nc(Cl)c1ccncc12 [drawing 2000],,,,-29.2,10.1,,
O=C(O)c1cccc2c1nc(Nc1cccc(Cl)c1)c1ccncc12 [drawing 2001],,,,20.2,15.5,,
NC(=O)c1cccc2c1nc(Nc1cccc(Cl)c1)c1ccncc12 [drawing 2002],,,,78.9,36.6,,
COC(=O)c1cccc2c1nc(Nc1ccccc1)c1ccncc12 [drawing 2003],,,,3.96,-7.87,,
O=C(O)c1cccc2c1nc(Nc1ccccc1)c1ccncc12 [drawing 2004],,,,-77.4,-13.5,,
